Patent publication US10308631B2, “Selective anti-cancer compounds” (NATIONAL UNIVERSITY OF SINGAPORE, priority 2015, dated 2019)

Columns and labels:
[1] = system: phospho-histone H3 (pH3) in HeLa cells; test: Immunoblot analysis of phospho-histone H3 in HeLa cells; format: cell-based, human; settings: 6 h
Procedure: FIG. 1 is a diagrammatic representation of an immunoblot analysis showing the dual inhibition of the autophagic process and mitotic progression by Compound 1 (a131). HeLa cells were treated with the indicated μM concentration of Compound 1 (a131) or chloroquine for 6 h. Cells were harvested and total lysates were analysed by detecting the mitotic marker phospho-histone H3 at serine 10 (pH3 (Ser10)) and the autophagosome marker LC3. The band intensity ratios of LC3-II/LC3-I as compared to DMSO control (lane 1, 0 μM chloroquine, and lane 7, 0 μM a131) are indicated (Ratio). Antibodies raised against β-actin were used as an internal loading control.
The ability of Compound 1 to inhibit lysosome function was examined using immunoblotting. HeLa cervical cancer cells were cultured in Dulbecco's modified Eagle's medium (DMEM) supplemented with 10% Fetal Bovine Serum (FBS, Thermo Scientific). […]
Defects in lysosome function and inhibition of autophagy can be measured by accumulation of LC3-phosphatidylethanolamine conjugated non-soluble form (LC3-II), which are converted from soluble LC3-I. Thus, antibodies raised against LC3 (Cell Signaling, Cat#4108) were used to determine lysosomal function and integrity. […] The inhibitory ability of Compound 1 was also quantitatively compared to CQ.

[2] = system: cancer cell lines (panel of thirty); test: MTT growth inhibition, mean over cancer cell line panel; format: cell-based; settings: Homo sapiens, 72 h
Procedure: (§1) FIG. 7 is a graphical representation showing that Compound 1 (a131) induces selective cell growth inhibitory effects in a broad spectrum of human cancer cells. A panel of cancer and normal cell lines were treated with Compound 1 (a131) for 72 h and a mean G150 value (the concentration required to achieve 50% growth inhibition) was determined. A Student's t-test indicated a statistically significant difference at p<0.05 (p=0.017) between normal cells and cancer cells treated with Compound 1 (a131). […]
(§2) The MTT assay was performed by adding thiazolyl blue tetrazolium bromide (MTT reagent, Invitrogen) at a concentration of 0.5 mg/mL to each cell culture and the resulting mixture incubated for 4 h at 37° C. […] The absorbance of each well at 540 nm and 660 nm was measured using a microplate reader (Benchmark plus, BIO-RAD). The optical density (OD) values were calculated by subtracting the absorbance at 660 nm from the absorbance at 540 nm. […]

[3] = system: normal cell lines (panel of five); test: MTT growth inhibition, mean over normal cell line panel; format: cell-based; settings: Homo sapiens, 72 h
Procedure: as §1, §2

[4] = system: p53 and p21 in non-transformed BJ cells; test: Immunoblot analysis of p53 and p21; format: cell-based, human; settings: 2.5 and 5 μM, 24 h or 48 h
Procedure: (§3) A: is output from a FACS analysis of isogenic-non-transformed, without (panels a-c) (WT) or with (panels d-f) shRNA-mediated knockdown of p53 (p53KD), and oncogene-transformed BJ cells (panels g-i), each treated with 0, 5 or 2.5 μM Compound 1 (a131) for 24 h. Cells were doubly stained with PI (horizontal axis) and BrdU (vertical axis). The BrdU-positive population in panels a-c are indicated as arrows. B: is a diagrammatic representation of an immunoblot analysis showing isogenic non-transformed (normal) and oncogene-transformed BJ cells (transformed) treated with Compound 1 (a131) at 0, 2.5 or 5 μM for 24 h or 48 h. Cells were harvested and total lysates were analysed by detecting p53 and p21. Antibodies raised against β-actin were used as an internal loading control. C and D are histograms showing the percentage of bromodeoxyuracil (BrdU)-positive non-transformed (normal) BJ cells. C: Cells were treated with Group 1 Compound 1 (a131) at 2.5 and 5 μM, Compound 23 (b36) at 2.5 and 5 μM, and Compound 21 (b35) at 5 μM, and Group 2 Compound 25 (a166) at 2.5 and 5 μM, for 24 h. Cells were doubly stained with propidium iodide (PI) and BrdU, and subjected to FACS analysis. The BrdU-positive population are plotted as bars. […]

[5] = system: p53 and p21 in oncogene-transformed BJ cells; test: Immunoblot analysis of p53 and p21; format: cell-based, human; settings: 2.5 and 5 μM, 24 h or 48 h
Procedure: as §3

## N#C/C(=C\c1cccc2cnccc12)c1c[nH]c2ccccc12 [Compound 1, (Z)-2-(1H-indol-3-yl)-3-(isoquinolin-5-yl)acrylonitrile]
[1]
  inhibition of mitotic progression (levels of phospho-histone H3): potently inhibits mitotic progression
[2]
  GI50: 1.7 µM
[3]
  GI50: 6.5 µM
[4]
  protein levels of p53 and p21: increased protein levels of p53
[5]
  protein expression levels of p53 and p21: did not alter the protein expression levels of p53 and p21
